{
  "source": "patent US9283280B2",
  "about": "“Compositions for drug administration” (Aegis Therapeutics, LLC, priority 2008, dated 2016);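 as to Ratio Cmax(alkylsacch)/Cmax(No alkylsacch): rats in groups of eight given 20 µL into one nostril, dose expressed as triptan free base, Cmax and Tmax read from plasma concentration–time curves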;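 as to Tmax: rats in groups of eight given 20 µL into one nostril, dose expressed as triptan free base, Cmax and Tmax read from plasma concentration–time curves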",
  "key": {"[1]": {"experiment": "Naratriptan sublingual spray two-way crossover study in patients", "assay_type": "in vivo", "settings": "in the presence of 0.18-0.2% alkylsaccharide (dodecylmaltoside)", "description": "Manufacturing process: Naratriptan hydrochloride salt is dissolved in water and required quantity of polyethylene glycol or ethanol is added. The alkyl glycoside, flavors, aspartame are next dissolved in the solution. Final adjustment of volume is made with water. The sublingual formulation with and without dodecylmaltoside alkylsaccharide is administered using a metered spray pump to 20 patients in a two way, two period cross over study."}, "[2]": {"settings": "cited from earlier work"}, "blood D-glucose [3]": {"system": "blood D-glucose", "experiment": "Insulin eye drops with absorption enhancer in xylazine/ketamine-anesthetized hyperglycemic rats, blood D-glucose", "assay_type": "in vivo, rat", "settings": "for Blood Glucose: before eye drops"}, "blood D-glucose [4]": {"system": "blood D-glucose", "experiment": "Insulin nose drops with tetradecylmaltoside in rats, blood glucose", "assay_type": "in vivo, rat", "settings": "nose drop, same insulin concentration with 0.5% tetradecylmaltoside", "description": "Tetradecylmaltoside (TDM) in combination with insulin also produced a drop in blood D-glucose levels when administered in the form of a drop intranasally as well as via a drop by the ocular route. […] Thus, intranasal delivery and administration of the alkyl saccharide with drug results in lowering of blood glucose levels."}, "[5]": {"system": "Aspergillus niger (ATCC No. 16404)", "experiment": "Antimicrobial activity of alkylglycoside solutions, plate count log reduction", "assay_type": "cell-based", "settings": "0.2%, BSA", "description": "(§1) 20110-2209. The viable microorganisms used in the invention were not more than five passages removed from the original ATCC culture. As described herein, one passage is defined as the transfer of organisms from an established culture to fresh medium and all transfers are counted.\n(§2) Cultures received from the ATCC are resuscitated according to the directions provided by the ATTC. Cells grown in broth were pelleted by centrifugation, resuspended in 1/20th the volume of fresh maintenance broth, and combined with an equal volume of 20% (v/v in water) sterile glycerol. Cells grown on agar were scraped from the surface into the maintenance broth also containing 10% glycerol broth. Small aliquots of the suspension were dispensed into sterile vials and the vials were stored in liquid nitrogen or in a mechanical freezer at a temperature no higher than about −50° C. When a fresh seed-stock vial was required, it was removed and used to inoculate a series of working stock cultures. These working stock cultures were then used periodically (each day in the case of bacteria and yeast) to start the inoculum culture.\n(§3) The culture conditions for the inoculum culture is substantially as described in Table IV. For example, suitable media can include but is not limited to, Soybean-Casein Digest or Sabouraud Dextrose Agar Medium. […]\n(§4) The suspension should be refrigerated if it is not used within 2 hours. To confirm the initial cfu per mL estimate, the number of cfu per mL in each suspension was determined using the conditions of media and microbial recovery incubation times listed in Table IV (e.g., from about 3 to about 7 days). This value serves to calibrate the size of inoculum used in the test. The bacterial and yeast suspensions were used within 24 hours of harvest; whereas the fungal preparation can be stored under refrigeration for up to 7 days.\n(§5) To determine which alkylglycoside formulations have antibacterial activity, the formulations were prepared in phosphate buffered saline (PBS) at pH 7. As a source of nutrition, either 1.5 mg/mL bovine serum albumin (BSA; see Tables V and VI) or 1 mg/mL of PYY was added (see Table VII) to the medium. BSA (CAS Number: 9048-46-8) was obtained from Sigma-Aldrich, St. Louis, Mo., USA, n-dodecyl-4-O-α-D-glucopyranosyl-β-D-glucopyranoside and n-tetradecyl-4-O-α-D-glucopyranosyl-β-D-glucopyranoside were obtained from Anatrace Inc., Maumee, Ohio, USA, and PYY was obtained from Bachem California Inc., Torrance, Calif., USA.\n(§6) Antibacterial activity of the alkylglycosides were conducted in four sterile, capped bacteriological containers of suitable size into which a sufficient volume of alkylglycoside solution had been transferred. Each container was inoculated with one of the prepared and standardized inoculums and mixed. The volume of the suspension inoculum was between about 0.5% and about 1.0% of the volume of the alkylglycoside solution. […]. To determine the level of inhibition of growth, or reduction of growth based on a logarithmic scale, the initial concentration of viable microorganisms in each test preparation was estimated based on the concentration of microorganisms in each of the standardized inoculum as determined by the plate-count method. The inoculated containers were then incubated at about 22.5° C.±2.5. The growth or non-growth of the microorganisms in each culture/container were again determined at day 14 and day 28. The number of cfu present in each calculation was determined by the plate-count procedure standard in the art for the applicable intervals. The change in the orders of magnitude of bacterium and/or fungi was then determined by subtracting the first calculated log 10 values of the concentrations of cfu per mL present at the start or beginning (e.g., day 0), from the log 10 values of the concentration of cfu per mL for each microorganism at the applicable test intervals (e.g., day 14 and day 28; see Tables V, VI and VII)."}, "[6]": {"system": "Candida albicans (ATCC No. 10231)", "experiment": "Antimicrobial activity of alkylglycoside solutions, plate count log reduction", "assay_type": "cell-based", "settings": "0.2%, BSA", "description": "as §1, §2, §3, §4, §5, §6"}, "[7]": {"system": "Escherichia coli (ATCC No. 8739)", "experiment": "Antimicrobial activity of alkylglycoside solutions, plate count log reduction", "assay_type": "cell-based", "settings": "0.2%, BSA; growth from initial count", "description": "as §1, §2, §3, §4, §5, §6"}, "[8]": {"system": "Staphylococcus aureus (ATCC No. 6538)", "experiment": "Antimicrobial activity of alkylglycoside solutions, plate count log reduction", "assay_type": "cell-based", "settings": "0.2%, BSA", "description": "as §1, §2, §3, §4, §5, §6"}, "[9]": {"experiment": "Intranasal triptans with alkylsaccharide in rats, plasma levels by HPLC", "assay_type": "in vivo", "protocol": "Each set of drug solutions is administered to six groups of eight rats each by 20 uL instillation to a single nare of each animal. […] After the last blood sample is collected each animal is cuthanizcd with CO2. After blood collection, plasma is immediately prepared from each blood sample using lithium/heparin as the anticoagulant. Plasma samples are stored at −70° C. until analyzed. […] The observed Tmax values from each plot is determined by inspection of the concentration vs time plots and recorded as shown in Table XII. The doses designated in this table reflect amounts of triptan free base in each case."}, "human nasal epithelium": {"system": "human nasal epithelium", "settings": "in vivo"}, "[10]": {"settings": "Naratriptan 0.22 mg/kg intranasal, alkylsaccharide 0.02%"}, "[11]": {"settings": "Naratriptan 0.22 mg/kg intranasal, alkylsaccharide 0.05%"}, "[12]": {"settings": "Naratriptan 0.22 mg/kg intranasal, alkylsaccharide 0.1%"}, "[13]": {"settings": "Naratriptan 0.22 mg/kg intranasal, alkylsaccharide 0.5%"}, "[14]": {"settings": "Naratriptan 0.22 mg/kg intranasal, alkylsaccharide 2%"}, "[15]": {"settings": "Sumatriptan 6.2 mg/kg intranasal, alkylsaccharide 0.02%"}, "[16]": {"settings": "Sumatriptan 6.2 mg/kg intranasal, alkylsaccharide 0.05%"}, "[17]": {"settings": "Sumatriptan 6.2 mg/kg intranasal, alkylsaccharide 0.1%"}, "[18]": {"settings": "Sumatriptan 6.2 mg/kg intranasal, alkylsaccharide 0.5%"}, "[19]": {"settings": "Sumatriptan 6.2 mg/kg intranasal, alkylsaccharide 2%"}},
  "data": [
    {"smiles": "CNS(=O)(=O)CCc1ccc2[nH]cc(C3CCN(C)CC3)c2c1", "note": "[naratriptan]", "values": [
      {"measurement": "bioavailability across the sublingual mucosal membranes", "setting": "[1]", "result": "little increase"}
    ]},
    {"smiles": "O=C(c1ccc(OCCN2CCCCC2)cc1)c1c(-c2ccc(O)cc2)sc2cc(O)ccc12", "note": "[raloxifene]", "values": [
      {"measurement": "water solubility", "setting": "[2]", "result": "approx. 0.25 mg/L"}
    ]},
    {"smiles": "CCCCCCCCCCCCCCO[C@@H]1O[C@H](CO)[C@@H](O[C@H]2O[C@H](CO)[C@@H](O)[C@H](O)[C@H]2O)[C@H](O)[C@H]1O", "note": "[tetradecyl maltoside, n-tetradecyl-4-O-α-D-glucopyranosyl-β-D-glucopyranoside]", "values": [
      {"measurement": "hypoglycemic effect / insulin absorption enhancement", "setting": "blood D-glucose [3]; eye drops 0.2% insulin + 0.5% enhancer", "result": "effective"},
      {"measurement": "hypoglycemic effect / insulin absorption enhancement", "setting": "blood D-glucose [3]; eye drops 0.2% insulin + […] enhancer", "result": "effective"},
      {"measurement": "effect on blood glucose levels", "setting": "blood D-glucose [3]; eye drops 0.2% regular porcine insulin with […] tetradecylmaltoside", "result": "prompt and prominent drop in blood glucose levels"},
      {"measurement": "Blood Glucose", "setting": "blood D-glucose [3]; time −10 min", "result": 311, "unit": "mg/dL"},
      {"measurement": "Blood Glucose", "setting": "blood D-glucose [3]; time −20 min", "result": 319, "unit": "mg/dL"},
      {"measurement": "effect on blood glucose levels", "setting": "blood D-glucose [4]", "result": "decrease even more"},
      {"measurement": "Log Reductions, Day 14", "setting": "[5]", "result": "0.5 orders of orders of magnitude reduction"},
      {"measurement": "Log Reductions, Day 28", "setting": "[5]; growth from initial count", "result": "No growth"},
      {"measurement": "Log Reductions, Day 14", "setting": "[6]", "result": "3.0 orders of orders of magnitude reduction"},
      {"measurement": "Log Reductions, Day 28", "setting": "[6]", "result": "≧5.4 orders of orders of magnitude reduction"},
      {"measurement": "Log Reductions, Day 28", "setting": "[7]", "result": "No growth"},
      {"measurement": "Log Reductions, Day 14", "setting": "[8]", "result": "≧5 orders of orders of magnitude reduction"},
      {"measurement": "Log Reductions, Day 28", "setting": "[8]", "result": "≧5 orders of orders of magnitude reduction"},
      {"measurement": "Ratio Cmax(alkylsacch)/Cmax(No alkylsacch)", "setting": "[9]; [10]", "result": "≦1.5"},
      {"measurement": "Tmax", "setting": "[9]; [10]", "result": "~60", "unit": "min"},
      {"measurement": "Ratio Cmax(alkylsacch)/Cmax(No alkylsacch)", "setting": "[9]; [11]", "result": "≧1.5"},
      {"measurement": "Tmax", "setting": "[9]; [11]", "result": "~5 to 15", "unit": "min"},
      {"measurement": "Ratio Cmax(alkylsacch)/Cmax(No alkylsacch)", "setting": "[9]; [12]", "result": "≧1.5"},
      {"measurement": "Tmax", "setting": "[9]; [12]", "result": "~5 to 15", "unit": "min"},
      {"measurement": "Ratio Cmax(alkylsacch)/Cmax(No alkylsacch)", "setting": "[9]; [13]", "result": "≧1.5"},
      {"measurement": "Tmax", "setting": "[9]; [13]", "result": "~5 to 15", "unit": "min"},
      {"measurement": "Ratio Cmax(alkylsacch)/Cmax(No alkylsacch)", "setting": "[9]; [14]", "result": "≧1.5"},
      {"measurement": "Tmax", "setting": "[9]; [14]", "result": "~5 to 15", "unit": "min"},
      {"measurement": "Tmax", "setting": "[9]; Rizatriptan […] intranasal, alkylsaccharide 0.02%", "result": "~60", "unit": "min"},
      {"measurement": "Tmax", "setting": "[9]; Rizatriptan […] intranasal, alkylsaccharide 0.05%", "result": "~5 to 15", "unit": "min"},
      {"measurement": "Tmax", "setting": "[9]; Rizatriptan […] intranasal, alkylsaccharide 0.1%", "result": "~5 to 15", "unit": "min"},
      {"measurement": "Tmax", "setting": "[9]; Rizatriptan […] intranasal, alkylsaccharide 0.5%", "result": "~5 to 15", "unit": "min"},
      {"measurement": "Tmax", "setting": "[9]; Rizatriptan […] intranasal, alkylsaccharide 2%", "result": "~5 to 15", "unit": "min"},
      {"measurement": "Ratio Cmax(alkylsacch)/Cmax(No alkylsacch)", "setting": "[9]; [15]", "result": "≦1.5"},
      {"measurement": "Tmax", "setting": "[9]; [15]", "result": "~60", "unit": "min"},
      {"measurement": "Ratio Cmax(alkylsacch)/Cmax(No alkylsacch)", "setting": "[9]; [16]", "result": "≧1.5"},
      {"measurement": "Tmax", "setting": "[9]; [16]", "result": "~5 to 15", "unit": "min"},
      {"measurement": "Ratio Cmax(alkylsacch)/Cmax(No alkylsacch)", "setting": "[9]; [17]", "result": "≧1.5"},
      {"measurement": "Tmax", "setting": "[9]; [17]", "result": "~5 to 15", "unit": "min"},
      {"measurement": "Ratio Cmax(alkylsacch)/Cmax(No alkylsacch)", "setting": "[9]; [18]", "result": "≧1.5"},
      {"measurement": "Tmax", "setting": "[9]; [18]", "result": "~5 to 15", "unit": "min"},
      {"measurement": "Ratio Cmax(alkylsacch)/Cmax(No alkylsacch)", "setting": "[9]; [19]", "result": "≧1.5"},
      {"measurement": "Tmax", "setting": "[9]; [19]", "result": "~5 to 15", "unit": "min"},
      {"measurement": "irritation of the nasal mucosa", "setting": "human nasal epithelium", "result": "no observable irritation"}
    ]}
  ]
}
